From the supplement of paper PMC10307832

How the values were obtained:
Assay in all cases: relative viability (nuclei count vs DMSO), 5 days (fraction); higher = more cells survive
XMD13-2 + Palbociclib = compound: C1CC1C(=O)NC2=NNC3=C2C=CC(=C3)C4=CC(=CC=C4)C(=O)NC5CC5 [XMD13-2] + CC(=O)c1c(C)c2cnc(Nc3ccc(N4CCNCC4)cn3)nc2n(C2CCCC2)c1=O [Palbociclib] (partner 0.5 µM)
Procedure, shortened: (§1)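 Relative viability equals treated-well nuclei counts divided by vehicle-well nuclei counts. Counts came from 4× images of lung cancer cell lines grown in 1536-well plates for 5 days after pin-tool dosing on the day after seeding. Dosing used one drug alone or a fixed anchor-drug dose plus five library-drug doses (not always all listed) in √10 steps, and values are medians of duplicate plates.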

Dasatinib + Alpelisib = compound: Cc1nc(Nc2ncc(C(=O)Nc3c(C)cccc3Cl)s2)cc(N2CCN(CCO)CC2)n1 [Dasatinib] + Cc1nc(NC(=O)N2CCC[C@H]2C(N)=O)sc1-c1ccnc(C(C)(C)C(F)(F)F)c1 [Alpelisib] (partner 2 µM)
Procedure, shortened: as §1

Dasatinib + Tozasertib = compound: Cc1nc(Nc2ncc(C(=O)Nc3c(C)cccc3Cl)s2)cc(N2CCN(CCO)CC2)n1 [Dasatinib] + Cc1cc(Nc2cc(N3CCN(C)CC3)nc(Sc3ccc(NC(=O)C4CC4)cc3)n2)n[nH]1 [Tozasertib] (partner 0.1 µM)
Procedure, shortened: as §1

XMD13-2 + Lapatinib = compound: C1CC1C(=O)NC2=NNC3=C2C=CC(=C3)C4=CC(=CC=C4)C(=O)NC5CC5 [XMD13-2] + CS(=O)(=O)CCNCc1ccc(-c2ccc3ncnc(Nc4ccc(OCc5cccc(F)c5)c(Cl)c4)c3c2)o1 [Lapatinib] (partner 2 µM)
Procedure, shortened: as §1

Row | Cell Line | relative viability (XMD13-2 + Palbociclib; first compound 0.05 µM) | relative viability (XMD13-2 + Palbociclib; first compound 0.1581 µM) | relative viability (XMD13-2 + Palbociclib; first compound 0.5 µM) | relative viability (XMD13-2 + Palbociclib; first compound 1.581 µM) | relative viability (XMD13-2 + Palbociclib; first compound 5 µM) | relative viability (Dasatinib + Alpelisib; first compound 0.005 µM) | relative viability (Dasatinib + Alpelisib; first compound 0.01581 µM) | relative viability (Dasatinib + Alpelisib; first compound 0.05 µM) | relative viability (Dasatinib + Alpelisib; first compound 0.1581 µM) | relative viability (Dasatinib + Alpelisib; first compound 0.5 µM) | relative viability (Dasatinib + Tozasertib; first compound 0.005 µM) | relative viability (Dasatinib + Tozasertib; first compound 0.01581 µM) | relative viability (Dasatinib + Tozasertib; first compound 0.05 µM) | relative viability (Dasatinib + Tozasertib; first compound 0.1581 µM) | relative viability (Dasatinib + Tozasertib; first compound 0.5 µM) | relative viability (XMD13-2 + Lapatinib; first compound 0.05 µM) | relative viability (XMD13-2 + Lapatinib; first compound 0.1581 µM) | relative viability (XMD13-2 + Lapatinib; first compound 0.5 µM) | relative viability (XMD13-2 + Lapatinib; first compound 1.581 µM) | relative viability (XMD13-2 + Lapatinib; first compound 5 µM)
1 | NCI-H2023 | 0.436 | 0.373 | 0.439 | 0.328 | 0.363 | 0.479 | 0.481 | 0.436 | 0.473 | 0.27 | 0.304 | 0.316 | 0.293 | 0.245 | 0.219 | 0.932 | 0.739 | 0.835 | 0.724 | 0.3
2 | EBC-1 | – | – | – | – | – | 0.78 | 0.755 | 0.579 | 0.579 | 0.463 | – | – | – | – | – | 0.199 | 0.22 | 0.215 | 0.185 | 0.214
3 | NCI-H1666 | 0.629 | 0.685 | 0.67 | 0.665 | 0.675 | 0.964 | 0.855 | 0.844 | 0.563 | 0.31 | 0.632 | 0.616 | 0.67 | 0.565 | 0.309 | 0.63 | 0.666 | 0.979 | 0.719 | 0.441
4 | NCI-H1975 | 0.77 | 0.607 | 0.538 | 0.678 | 0.61 | 0.579 | 0.437 | 0.361 | 0.21 | 0.199 | 0.692 | 0.677 | 0.648 | 0.377 | 0.245 | 0.968 | 0.922 | 0.991 | 1.01 | 1.01
5 | NCI-H2170 | 0.392 | 0.4 | 0.399 | 0.407 | 0.319 | 0.738 | 0.649 | 0.644 | 0.449 | 0.382 | 0.698 | 0.622 | 0.722 | 0.564 | 0.247 | 0.307 | 0.272 | 0.278 | 0.284 | 0.266
6 | NCI-H1355 | 0.442 | 0.365 | 0.42 | 0.398 | 0.425 | 0.674 | 0.621 | 0.652 | 0.53 | 0.297 | 0.585 | 0.421 | 0.459 | 0.401 | 0.347 | 1.13 | 0.942 | 1.05 | 0.997 | 1.06
7 | NCI-H1648 | 0.309 | – | 0.273 | 0.275 | 0.235 | – | – | – | – | – | 0.624 | 0.545 | 0.327 | 0.233 | 0.14 | – | – | – | – | –
8 | A549 | – | – | – | – | – | 0.65 | 0.479 | 0.558 | 0.432 | 0.139 | – | – | – | – | – | 1.2 | 0.974 | 0.938 | 0.811 | 0.891
9 | SK-MES-1 | 0.308 | 0.312 | 0.304 | 0.329 | 0.326 | 0.991 | – | 0.713 | 0.474 | 0.251 | 0.972 | 1.02 | 0.938 | 0.556 | 0.22 | 0.578 | 0.461 | 0.519 | 0.477 | 0.514
10 | EKVX | 0.45 | 0.376 | 0.33 | – | 0.397 | 0.774 | 0.637 | 0.651 | 0.557 | 0.145 | 0.372 | 0.279 | 0.303 | 0.214 | 0.119 | 0.205 | 0.173 | 0.177 | 0.192 | 0.196
11 | RERF-LC-KJ | 1.06 | 1.11 | 1.1 | 1.04 | 1.03 | 0.823 | 0.496 | 0.665 | 0.614 | 0.432 | 0.52 | 0.511 | 0.44 | 0.487 | 0.406 | 0.912 | 0.841 | 0.858 | 0.816 | 0.78
12 | NCI-H1755 | 0.468 | 0.444 | 0.457 | 0.474 | 0.409 | 0.775 | 0.602 | 0.437 | 0.275 | 0.137 | 0.584 | 0.532 | 0.516 | 0.312 | 0.21 | 1.08 | 1.09 | 1.07 | 1 | 1.09
13 | NCI-H661 | 0.378 | 0.395 | 0.392 | 0.406 | 0.408 | 0.538 | 0.584 | 0.424 | 0.271 | 0.254 | 0.348 | 0.34 | 0.324 | 0.323 | 0.295 | 0.423 | 0.555 | 0.578 | 0.519 | 0.386
14 | LOU-NH91 | 0.541 | 0.554 | 0.561 | 0.475 | 0.507 | 0.69 | 0.584 | 0.572 | 0.441 | 0.34 | 0.721 | 0.652 | 0.637 | 0.556 | 0.307 | 0.809 | 0.758 | 0.725 | 0.713 | 0.746
15 | LXF-289 | 0.627 | 0.64 | 0.535 | 0.634 | 0.612 | 1.05 | 1.05 | 0.666 | 0.154 | 0.109 | 0.193 | 0.0886 | 0.0932 | 0.0636 | 0.0438 | 0.923 | 0.901 | 0.905 | 0.897 | 0.834
16 | HCC-44 | 0.978 | 0.912 | 0.959 | 0.944 | 0.96 | 0.789 | 0.705 | 0.676 | 0.271 | 0.183 | 1.19 | 0.716 | 0.452 | 0.75 | 0.313 | 1.01 | 1.12 | 1.08 | 0.957 | 0.771
17 | HARA | 0.265 | 0.313 | 0.25 | 0.273 | 0.245 | 0.778 | 0.723 | 0.57 | 0.27 | 0.193 | 0.119 | 0.133 | 0.0917 | 0.0528 | 0.0523 | 0.825 | 0.886 | 0.699 | 0.711 | 0.538
18 | 201T | 0.356 | 0.377 | 0.539 | 0.357 | 0.34 | 0.95 | 0.922 | 0.845 | 0.654 | 0.338 | 0.877 | 0.746 | 0.751 | 0.606 | 0.425 | 1.06 | 1.13 | 1.02 | 1.07 | 1.08
